From patent US9902713B2, “Neuroprotective compounds and use thereof” (BOARD OF REGENTS OF THE UNIVERSITY OF TEXAS SYSTEM, priority 2013, dated 2018)
Entries after “also recorded” stand apart in the source; their conditions may differ.

Experiments:
[1] = tested on: dopaminergic neurons within the substantia nigra; test: MPTP model of Parkinson's disease, TH+ neurons in SNc; assay type: in vivo, mice; conditions: IP, BID; for rescue of TH+ neurons: 10 mg/kg/d; for dose showing significant neuroprotective activity: 21 d after MPTP
From the text: The mouse model of neurogenesis involves protecting newborn hippocampal neurons from premature apoptotic cell death. We also sought to determine if P7C3-S243 could protect mature neurons from cell death. […] In the brain, MPTP is oxidized to 1-methyl-4-phenylpyridinium cation (MPP^+), which is selectively transported into dopaminergic neurons within the SNc.^xh Within these cells, MPP^+ acts as a mitochondrial poison, generating a pathology that resembles that of Parkinsonian patients.^xvii Under our assay conditions, treatment with drug was initiated a full 24 hours after the final dose of MPTP. This dosing regime ensures that any effect of the P7C3 class of compounds can be attributed to neuroprotective activity rather than to simply blocking the uptake or metabolism of MPTP.^xviii Mice were administered drug twice daily for 21 days, after which time they were sacrificed by transcardial perfusion. Fixed brains were sectioned through the SNc at […] intervals. Every fourth section was stained with antibodies specific to tyrosine hydroxylase (TH). The TH enzyme catalyzes the oxidation of L-tyrosine to L-DOPA, which is the first step in the biosynthesis of dopamine. Accordingly, the number of TH+ cells provides a quantification of the neuroprotective efficacy of P7C3 derivatives following MPTP exposure. Importantly, all microscopic analyses were performed blinded to treatment group.
To test efficacy of P7C3-S243 in the MPTP model of Parkinson's disease, mice were administered MPTP (30 mg/k/d) for 5 days. On the 6th day, treatment with drug was initiated at the indicated dose (IP, BID, 21 d). In FIG. 3 upper panel, bars indicate number of tyrosine hydroxylase positive cells detected by immunohistochemical staining of the substantia nigra; error bars indicate SEM; asterisks indicate p<0.01 (*), p<0.001 (**) or p<0.0001 (***) relative to the Veh+MPTP group; number of mice in each group are shown within the bars. In FIG. 3 lower panel, representative immunohistochemical pictures of TH staining in the SNc are shown for 5 mg/kg/d treatment groups; bar=[…]. […] Moreover, the enantiomeric specificity observed in the MPTP model of Parkinson's disease mirrored that observed in the mouse model of neurogenesis. […] In this side-by-side experiment, P7C3-S243 appears at least as effective as P7C3-A20, a compound that has proven efficacy in several animal models of neurodegenerative disease.
MPTP Assay. As previously reported,^5 adult male C57BI/6 mice were individually housed for one week and then injected daily for 5 days with 30 mg/kg/day (i.p.) free base MPTP (Sigma). On day 6, 24 hours after receiving the fifth and final dose of MPTP, daily treatment with compound was initiated. Mice received twice daily doses of each compound (or vehicle) for the following 21 days, after which mice were sacrificed by transcardial perfusion with 4% paraformaldehyde. Brains were dissected, fixed overnight in 4% paraformaldehyde, and cryprotected in sucrose for freezing by standard procedures. […] Images were analyzed with a Nikon Eclipse 90i motorized research microscope with Plan Apo lenses coupled with Metamorph Image Acquisition software (Nikon). TH+ neurons were counted with Image J software (NIH) in every section by 2 blinded investigators and results were averaged and multiplied by the sectioning interval to determine the total number of TH+ neurons per SNc.

blast-injured mice = test: Barnes maze after blast-mediated TBI; assay type: in vivo; conditions: for time in escape quadrant, probe test: treatment immediately after blast-injury, 10 mg/kg/d IP, FIG. 21A
From the text: Barnes maze: The Barnes maze evaluates cognition based on time spent in the escape area. There are 20 holes around the periphery of the round tabletop, one of which contains an escape chamber (shown in red), into which the animal is motivated to seek shelter after being placed on the open tabletop. The escape area is defined as 5 cm around the hole, and time spent in the escape area during the probe test is used to measure hippocampal-dependent memory, which is dependent on visual cue around the table.
To test the neuroprotective efficacy of P7C3-A20 and P7C3-S243, we employed a model of blast-induced TBI in which the blast wave is propagated following rupture of a mylar membrane (Mohan et al., 2013). Briefly, anesthetized mice are placed in an enclosed blast chamber constructed from an air tank partitioned into two sides. A sealed mylar membrane covers a small port between the two halves of the tank. When the pressure is increased in the side without the mouse, the membrane ruptures at ≈22 kilopascal (kPa), generating a blast wave that travels through the mouse's head. The head of the mouse is untethered and located in a padded holder, while the body is shielded from the blast by a metal tube. In all cases, the left side of the head faces the blast wave. As previously reported (Mohan et al., 2013), the intensity of the blast wave in our system is 149.8±2.09 kPa, and the duration of the total pressure (Blast wave+wind gust) is ≈10-15 milliseconds.
The Barnes maze consists of a circular table with holes equally spaced around the perimeter. One of these holes contains an escape cup, such that the mouse can enter the hole and hide in the cup to avoid exposure on the table. Testing in the Barnes maze was initiated 7 days after blast-injury. To begin, mice underwent 4 days of training, during which time they were allowed to find and enter the escape hole, and rest in the protective cup. By the 4th day of training, mice typically learn how to rapidly locate the escape hole, based on visual cues permanently positioned around the table throughout training. After 4 days of training, the cup is removed and the ability of the mouse to remember where the cup was previously located is assessed in the ‘probe test.’ Memory is reflected by measuring the amount of time the mouse spends in the area around where the cup was previously located.
Blast-Mediated Traumatic Brain Injury. Mice were anesthetized with ketamine/xylazine ([…] respectively) and placed in an enclosed blast chamber (50 cm long and 33 cm wide) constructed from an air tank partitioned into two sides. One side was pressurized with a 13 cm opening between the partitions, covered with a Mylar membrane. The unpressurized partition contained a restraint 10 cm from the Mylar membrane into which the mouse was placed. The head was freely moving while a metal tube shielded the body. Compressed air was forced in to the pressurized partition until the Mylar membrane bursts at 22 kPa. The blast wave impacts the test animal inside a foam-lined restraint to reduce blunt impact trauma of the head against the metal tube. The left side of the head was closest the origin of the blast wave. Sham-injured animals were anesthetized in the same way and not subjected to the blast.
Barnes Maze. The Barnes maze test assesses spatial learning and memory. It was conducted on a gray circular surface 91 cm in diameter with 20 holes 5 cm in diameter around the perimeter raised to a height of 90 cm (Stoelting Co.). The surface was brightly lit and open in order to motivate the test animal to learn the location of a dark escape chamber recessed under one of the 20 holes. The maze was placed inside a black circular curtain with four different visual cues (with different shapes and colors) for orientation to the permanent location of the escape chamber. Four days of training comprised of four trials per day were conducted for each animal. […]

[2] = 3 and 30 mg/kg/d from 24 hours after injury
[3] = 3 and 30 mg/kg/d from 36 hours after injury
[4] = from 48 hours after injury, any dose
[5] = single enantiomers, 3 mg/kg/d IP

SMILES: COc1cccc(NCC(F)Cn2c3ccc(Br)cc3c3cc(Br)ccc32)n1 (racemic) [P7C3-S243, N-(3-(3,6-dibromo-9H-carbazol-9-yl)-2-fluoropropyl)-6-methoxypyridin-2-amine]
- rescue of TH+ neurons ([1]; 21 d): over 85%
- dose showing significant neuroprotective activity [1]: 1 mg/kg/day
- learning (percent latency to escape) (blast-injured mice; 0.3 mg/kg/day from 24 hours after injury): learned significantly worse than sham-injury mice
- learning (percent latency to escape) (blast-injured mice; 30 mg/kg/day from 48 hours after injury): restored normal learning
- learning (percent latency to escape) (blast-injured mice; 1, 3, 10 or 30 mg/kg/day from 24 hours after injury): learned the task as well as sham-injury mice
- percent quadrant time, probe test (blast-injured mice; [2]): preserved a normal percent quadrant time
- percent target entry, probe test (blast-injured mice; [2]): preserved a normal percent target entry
- percent quadrant time, probe test (blast-injured mice; [3]): only the higher dose was significantly protective
- percent target entry, probe test (blast-injured mice; [3]): only the higher dose was significantly protective
- learning (percent latency to escape) (blast-injured mice; 3 and 30 mg/kg/day from 36 hours after injury): improved learning
- percent target entry, probe test (blast-injured mice; IP 11 days, dose series, FIG. 22A): dose-dependently preserved performance
- percent quadrant time, probe test (blast-injured mice; IP 11 days, dose series, FIG. 23A): dose-dependently preserved performance
- memory in probe test (blast-injured mice; IP from 24 hours after injury, 0.3 mg/kg/day): did not preserve memory
- percent time in escape area, probe test (blast-injured mice; IP from 24 hours after injury, 1 mg/kg/day): partial, though not statistically significant, protection
- percent time in escape area, probe test (blast-injured mice; IP from 24 hours after injury, 3, 10 and 30 mg/kg/day): protected; also recorded: complete protection
- memory in probe test (blast-injured mice; IP from 36 hours after injury, 3 mg/kg/day): did not improve memory
- percent time in escape area, probe test (blast-injured mice; IP from 36 hours after injury, 30 mg/kg/d): partially efficacious
- percent time in escape area, probe test (blast-injured mice; IP from 48 hours after injury, any dose (3 or 30 mg/kg/d)): no protective efficacy
- percent quadrant time, probe test (blast-injured mice; [4]): no protective efficacy
- percent target entry, probe test (blast-injured mice; [4]): no protective efficacy
- time in escape quadrant, probe test (blast-injured mice): restored the time spent in the escape quadrant to normal levels

SMILES: COc1cccc(NCC(F)Cn2c3ccc(Br)cc3c3cc(Br)ccc32)n1 (single isomer, unassigned; (-)) [(−)-P7C3-S243, (−)-N-(3-(3,6-dibromo-9H-carbazol-9-yl)-2-fluoropropyl)-6-methoxypyridin-2-amine]
- neuroprotection by single enantiomers ([1]; 21 d, FIG. 3): strongly protective
- memory in probe test (blast-injured mice; oral from 24 hours after injury, 3, 10 and 30 mg/kg/day): preserved memory
- learning (percent latency to escape) (blast-injured mice; oral, 1 mg/kg/day): restored normal learning
- memory in probe test (blast-injured mice; oral, 1 mg/kg/day): did not preserve memory
- learning (percent latency to escape) (blast-injured mice; oral, 1, 3, 10 and 30 mg/kg/day): preserved of normal percent latency to escape
- percent quadrant time, probe test (blast-injured mice; oral, 3, 10 and 30 mg/kg/day): potent preservation
- percent target entry, probe test (blast-injured mice; oral, 3, 10 and 30 mg/kg/day): potent preservation
- percent quadrant time, probe test (blast-injured mice; [5]): completely preserved normal performance
- percent target entry, probe test (blast-injured mice; [5]): preserved normal performance
- learning (percent latency to escape) (blast-injured mice; single enantiomers, 3 mg/kg/day from 24 hours after injury): learned the task as well as sham-injury mice
- percent time in escape area, probe test (blast-injured mice; single enantiomers, IP from 24 hours after injury, 3 mg/kg/day): complete protection
- percent time in escape area, probe test (blast-injured mice; single enantiomers, IP from 24 hours after injury, 3 mg/kg/day, listed as A, 3 mg/kg/day): protective
- time in escape quadrant, probe test (blast-injured mice): nonsignificant trend

SMILES: COc1cccc(NCC(F)Cn2c3ccc(Br)cc3c3cc(Br)ccc32)c1 (stereo not shown) [P7C3-A20, N-(3-(3,6-dibromo-9H-carbazol-9-yl)-2-fluoropropyl)-3-methoxyaniline]
- rescue of TH+ neurons ([1]; 21 d): around 75%
- dose showing significant neuroprotective activity [1]: 5 mg/kg/day
- time in escape quadrant, probe test (blast-injured mice): restored the time spent in the escape quadrant to normal levels
